Reference: ChEMBL document CHEMBL5325408, “Design, synthesis, and biological activity studies on benzimidazole derivatives targeting myeloperoxidase” (Eur J Med Chem, 2023)

Legend:
[1] = biological target: T1, Myeloperoxidase (Homo sapiens) (UniProt P05164); experiment: Inhibition of human MPO using taurine as substrate assessed as reduction in substrate chlorination at 20 uM incubated for 30 mins by taurine-chloramine assay relative to control
T1 sequence (whole entry): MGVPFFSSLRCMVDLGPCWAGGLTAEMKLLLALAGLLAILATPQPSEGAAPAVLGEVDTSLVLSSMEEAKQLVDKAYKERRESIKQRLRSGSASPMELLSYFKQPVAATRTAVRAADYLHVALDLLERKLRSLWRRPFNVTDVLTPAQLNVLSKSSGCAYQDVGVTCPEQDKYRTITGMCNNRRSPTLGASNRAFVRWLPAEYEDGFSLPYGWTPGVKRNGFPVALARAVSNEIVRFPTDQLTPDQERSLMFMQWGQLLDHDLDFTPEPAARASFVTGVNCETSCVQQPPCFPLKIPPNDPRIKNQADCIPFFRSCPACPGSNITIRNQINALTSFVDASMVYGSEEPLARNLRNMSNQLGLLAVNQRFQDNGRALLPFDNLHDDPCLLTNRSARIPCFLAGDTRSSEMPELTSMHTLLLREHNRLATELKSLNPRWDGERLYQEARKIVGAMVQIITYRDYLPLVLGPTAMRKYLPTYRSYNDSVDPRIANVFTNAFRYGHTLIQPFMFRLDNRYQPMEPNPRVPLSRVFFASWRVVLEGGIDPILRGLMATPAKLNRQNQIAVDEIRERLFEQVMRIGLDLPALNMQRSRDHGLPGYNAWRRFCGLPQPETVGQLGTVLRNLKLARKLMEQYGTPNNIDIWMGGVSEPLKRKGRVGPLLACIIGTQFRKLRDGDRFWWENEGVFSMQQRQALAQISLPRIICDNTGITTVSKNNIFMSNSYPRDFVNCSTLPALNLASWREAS

Myeloperoxidase [2] = biological target: T2, Myeloperoxidase (Homo sapiens, UniProt P05164); experiment: Inhibition of human MPO using taurine as substrate assessed as reduction in substrate chlorination incubated for 30 mins by taurine-chloramine assay
T2 sequence (P05164 whole entry): T1 sequence (whole entry)

[3] = biological target: T1, Myeloperoxidase (Homo sapiens); experiment: Inhibition of human MPO peroxidase activity at 100 uM incubated in presence of H2O2 by amplex red assay relative to control
[4] = Antioxidant activity assessed as HOCl scavenging activity at 100 uM incubated for 10 mins in presence of TNB and taurine by absorbance based assay relative to control; type: functional
Myeloperoxidase [5] = biological target: T2, Myeloperoxidase; experiment: Inhibition of human MPO peroxidase activity incubated in presence of H2O2 by amplex red assay

SMILES	inhibition [1]	also measured
O=C(Cn1c(Cl)nc2ccccc21)Nc1ccccc1	27.9%	–
COc1ccc(NC(=O)Cn2c(Cl)nc3ccccc32)cc1	36.9%	–
O=C(Cn1c(Cl)nc2ccccc21)Nc1cccc(Cl)c1	67.8%	–
Cc1ccccc1NC(=O)Cn1c(=S)[nH]c2ccccc21	93%	IC50 (Myeloperoxidase [2]): 4.26 µM; inhibition [3]: 24%; Activity [4]: 0.94%
O=C(Cn1c(Cl)nc2ccccc21)Nc1ccccc1[N+](=O)[O-]	31.8%	–
O=C(CSc1nc2ccccc2[nH]1)Nc1cccc([N+](=O)[O-])c1	62.3%	–
COc1ccc(NC(=O)Cn2c(=S)[nH]c3ccccc32)cc1	81.7%	IC50 (Myeloperoxidase [2]): 4.08 µM; inhibition [3]: 30.5%; Activity [4]: 2.83%
O=C(Cn1c(Cl)nc2ccccc21)Nc1ccccc1Cl	21.9%	–
COc1ccc(NC(=O)CSc2nc3ccccc3[nH]2)cc1	50%	–
O=C(CSc1nc2ccccc2[nH]1)NCc1ccccc1	63.6%	–
COc1ccccc1NC(=O)Cn1c(Cl)nc2ccccc21	39.3%	–
O=C(CSc1nc2ccccc2[nH]1)Nc1ccc(Cl)cc1	52.6%	–
O=C(CSc1nc2ccccc2[nH]1)Nc1cccc(Cl)c1	56.1%	–
O=C(Cn1c(Cl)nc2ccccc21)Nc1cccc([N+](=O)[O-])c1	44%	–
Cc1cccc(NC(=O)Cn2c(=S)[nH]c3ccccc32)c1	91.4%	IC50 (Myeloperoxidase [2]): 3.86 µM; inhibition [3]: 26.7%; Activity [4]: 6.79%
O=C(Cn1c(Cl)nc2ccccc21)N1CCOCC1	32.7%	–
COc1cccc(NC(=O)Cn2c(Cl)nc3ccccc32)c1	46.6%	–
COc1cccc(NC(=O)Cn2c(=S)[nH]c3ccccc32)c1	65.5%	–
COc1ccccc1NC(=O)CSc1nc2ccccc2[nH]1	72.6%	IC50 (Myeloperoxidase [2]): 10.4 µM; inhibition [3]: 0%
Cc1ccc(NC(=O)Cn2c(Cl)nc3ccccc32)cc1	36.5%	–
O=C(Cn1c(Cl)nc2ccccc21)Nc1ccc(Cl)cc1	63.8%	–
COc1cc(NC(=O)Cn2c(Cl)nc3ccccc32)cc(OC)c1OC	35.7%	–
O=C(CSc1nc2ccccc2[nH]1)N1CCCCC1	32%	–
O=C(CSc1nc2ccccc2[nH]1)Nc1ccccc1[N+](=O)[O-]	48.5%	–
O=C(Cn1c(Cl)nc2ccccc21)N1CCCCC1	29.1%	–
Cc1cccc(NC(=O)Cn2c(Cl)nc3ccccc32)c1	34.8%	–
Cc1ccccc1NC(=O)CSc1nc2ccccc2[nH]1	44.9%	–
O=C(Cn1c(=S)[nH]c2ccccc21)Nc1ccccc1Cl	89.4%	IC50 (Myeloperoxidase [2]): 6.67 µM; inhibition [3]: 47.6%; Activity [4]: 5.47%

SMILES	inhibition [1]	also measured
O=C(Cn1c(=S)[nH]c2ccccc21)Nc1ccccc1[N+](=O)[O-]	70.2%	IC50 (Myeloperoxidase [2]): 5.63 µM; inhibition [3]: 22.6%
O=C(Cn1c(=S)[nH]c2ccccc21)NCc1ccccc1	95.3%	IC50 (Myeloperoxidase [2]): 4.33 µM; inhibition [3]: 53.3%; IC50 (Myeloperoxidase [5]): 97.3 µM
Cc1ccccc1NC(=O)Cn1c(Cl)nc2ccccc21	28.5%	–
O=C(Cn1c(=S)[nH]c2ccccc21)Nc1ccc([N+](=O)[O-])cc1	61.4%	–
Cc1ccc(NC(=O)CSc2nc3ccccc3[nH]2)cc1	73%	IC50 (Myeloperoxidase [2]): 8.51 µM; inhibition [3]: 0%
O=C(CSc1nc2ccccc2[nH]1)N1CCOCC1	35.9%	–
O=C(Cn1c(=S)[nH]c2ccccc21)Nc1ccc(Cl)cc1	85.3%	IC50 (Myeloperoxidase [2]): 7.76 µM; inhibition [3]: 21.7%; Activity [4]: 5.85%
O=C(Cn1c(=S)[nH]c2ccccc21)Nc1cccc([N+](=O)[O-])c1	61.9%	–
O=C(Cn1c(Cl)nc2ccccc21)NCc1ccccc1	24.9%	–
COc1cccc(NC(=O)CSc2nc3ccccc3[nH]2)c1	61.4%	–
O=C(Cn1c(=S)[nH]c2ccccc21)N1CCCCC1	58.2%	–
COc1ccccc1NC(=O)Cn1c(=S)[nH]c2ccccc21	94.3%	IC50 (Myeloperoxidase [2]): 3.72 µM; inhibition [3]: 19.1%; Activity [4]: 8.77%
COc1cc(NC(=O)CSc2nc3ccccc3[nH]2)cc(OC)c1OC	68.9%	–
O=C(Cn1c(Cl)nc2ccccc21)Nc1ccc([N+](=O)[O-])cc1	54%	–
O=C(CSc1nc2ccccc2[nH]1)Nc1ccc([N+](=O)[O-])cc1	62.1%	–
Cc1cccc(NC(=O)CSc2nc3ccccc3[nH]2)c1	92.5%	IC50 (Myeloperoxidase [2]): 6.41 µM; inhibition [3]: 4.3%
Cc1ccc(NC(=O)Cn2c(S)nc3ccccc32)cc1	41.1%	–
O=C(CSc1nc2ccccc2[nH]1)Nc1ccccc1	50%	–
CCOC(=O)Cn1c(=S)[nH]c2ccccc21	51.3%	–
O=C(Cn1c(=S)[nH]c2ccccc21)N1CCOCC1	52.2%	–
CCOC(=O)Cn1c(Cl)nc2ccccc21	33.3%	–
O=C(Cn1c(=S)[nH]c2ccccc21)Nc1cccc(Cl)c1	75.7%	IC50 (Myeloperoxidase [2]): 9.44 µM; inhibition [3]: 29.8%; Activity [4]: 1.04%
O=C(Cn1c(=S)[nH]c2ccccc21)Nc1ccccc1	91.9%	IC50 (Myeloperoxidase [2]): 5.64 µM; inhibition [3]: 57.5%; IC50 (Myeloperoxidase [5]): 95.4 µM
NNC(=O)Cn1c(=S)[nH]c2ccccc21	93.2%	IC50 (Myeloperoxidase [2]): 0.39 µM; inhibition [3]: 71%; IC50 (Myeloperoxidase [5]): 82.7 µM
O=C(Cn1c(=S)[nH]c2ccccc21)NO	51.2%	–
COc1cc(NC(=O)Cn2c(=S)[nH]c3ccccc32)cc(OC)c1OC	62.6%	–
O=C(CSc1nc2ccccc2[nH]1)Nc1ccccc1Cl	54.4%	–
